Test results published in US12473289B2, “Heterocyclic compounds as delta-5 desaturase inhibitors and methods of use” (Amgen Inc., priority 2019, dated 2025).

Each compound was assayed against Delta-5-Desaturase (D5D) (Homo sapiens (Human), UniProt O60427) (assay: In vitro measurement of Delta-5-Desaturase inhibitory activity using DGLA-CoA and Arachidonyl-CoA mass spectrometric assays). Conditions: membrane preparations of D5D-overexpressing HEK293 6E cells; averaged over at least two independent runs.
Sequence of Delta-5-Desaturase (D5D) (O60427 whole entry, species assumed): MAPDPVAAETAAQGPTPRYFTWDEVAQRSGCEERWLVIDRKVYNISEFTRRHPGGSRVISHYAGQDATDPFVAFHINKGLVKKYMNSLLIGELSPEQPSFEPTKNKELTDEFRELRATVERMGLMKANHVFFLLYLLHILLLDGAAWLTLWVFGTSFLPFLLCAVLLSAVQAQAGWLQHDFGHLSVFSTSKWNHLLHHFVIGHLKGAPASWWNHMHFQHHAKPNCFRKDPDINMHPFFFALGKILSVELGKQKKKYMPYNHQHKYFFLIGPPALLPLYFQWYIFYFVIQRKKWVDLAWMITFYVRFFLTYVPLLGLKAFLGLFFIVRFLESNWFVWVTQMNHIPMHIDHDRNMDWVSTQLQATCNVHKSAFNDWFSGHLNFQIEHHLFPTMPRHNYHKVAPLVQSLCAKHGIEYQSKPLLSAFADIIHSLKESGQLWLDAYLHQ
Type: biochemical
Description: In vitro Measurement of Delta-5-Desaturase Inhibitory Activity using DGLA-CoA and Arachidonyl-CoA Mass Spectrometric Assays
Membrane preparations of D5D-overexpressing HEK293 6E cells were prepared in which the total protein concentration was 5.6 mg/mL. Stock D5D membrane preparations were diluted in D5D assay buffer (25 mM 2-amino-2-(hydroxymethyl)-1,3-propanediol, pH 7.5 containing 10 mM MgCl2, 1 mM octyl glucoside (SigmaAldrich 0-8001), 1 mM tris(2-carboxyethyl)phosphine hydrochloride (SigmaAldrich 646547)) to a final D5D membrane concentration of 10 μg/mL in an assay plate containing serially diluted test compounds. To 15 μL of this D5D preparation was added 15 μL of a substrate solution (0.25 mM NADH (nicotinamide adenine dinucleotide, Roche Diag. 10107735001), 0.25 mM adenosine triphosphate (SigmaAldrich A-3377), 0.05 mM coenzyme A hydrate (SigmaAldrich C-4282), and 0.01 mM DGLA (dihomo-g-linolenic acid, Sigma E-4504) in the same D5D assay buffer. After one-hour incubation at ambient temperature acetonitrile (30 μL) was added to quench the reaction and plates were centrifuged for 10 min @3,000 rpm. Mass spectrometric analysis involved a Rapidfire 360 SPE system coupled to an ABSciex API4000 Triple Quadrupole mass spectrometer using a C18 SPE cartridge (G9203-80105) with ionization in negative mode (solvent A=100% water; solvent B=100% acetonitrile, each solvent containing 5 mM ammonium acetate). DGLA-CoA and Arachidonyl-CoA were detected by multiple reaction monitoring (MRM) of the doubly charged parent ions at m/z 526.6 and 525.6, respectively.
Sx is value from unknown sample, So is value from DMSO alone and Sc is value from no enzyme well. For CRC analysis, the % of inhibitions were analyzed with 4 Parameter Logistic Model or Sigmoidal Dose-Response Model using XLfit (IDBS, Guilford, UK). The potency of the test item was expressed as IC50 nM, corresponding to the test item concentration able to inhibit the 50% of the enzyme maximal response. IC50 values were averaged values determined by at least two independent runs.
This assay may be used to test any of the compounds described herein to assess and characterize a compound's ability to inhibit D5D.

`O=c1c(-c2cnn(CC(F)(F)C(F)(F)F)c2)c(C(F)(F)F)nc2cc(Cl)ccn12` [Example 2-6, 8-chloro-3-(1-(2,2,3,3,3-pentafluoropropyl)-1H-pyrazol-4-yl)-2-(trifluoromethyl)-4H-pyrido[1,2-a]pyrimidin-4-one] was tested. Which IC50 did it give?
The IC50 was 8.2 nM.

Which IC50 does the source give for `O=c1c(-c2ccc(OCC(F)(F)F)cc2)c(C(F)(F)F)nc2cc(Cl)ccn12` [Example 2-7, 8-chloro-3-(4-(2,2,2-trifluoroethoxy)phenyl)-2-(trifluoromethyl)-4H-pyrido[1,2-a]pyrimidin-4-one] here?
Its IC50 is 4.1 nM.

How did the IC50 turn out when `C=Cc1ccn2c(=O)c(-c3ccc(OCC(F)(F)F)cc3)c(C(F)(F)F)nc2c1` [Example 2-8, 8-ethenyl-3-(4-(2,2,2-trifluoroethoxy)phenyl)-2-(trifluoromethyl)-4H-pyrido[1,2-a]pyrimidin-4-one] was run?
The IC50 was 25.4 nM.

`N#Cc1ccn2c(=O)c(-c3ccc(OCC(F)(F)F)cc3)c(C(F)(F)F)nc2c1` [Example 2-9, 4-oxo-3-(4-(2,2,2-trifluoroethoxy)phenyl)-2-(trifluoromethyl)-4H-pyrido[1,2-a]pyrimidine-8-carbonitrile] was tested. Which IC50 did it give?
The IC50 was 440 nM.

`CCc1nc2cc(OC)ccn2c(=O)c1-c1cnn(CC(F)(F)C(F)(F)F)c1` [Example 3-1, 2-Ethyl-8-methoxy-3-(1-(2,2,3,3,3-pentafluoropropyl)-1H-pyrazol-4-yl)-4H-pyrido[1,2-a]pyrimidin-4-one] was tested. Which IC50 did it give?
The IC50 was 53.9 nM.

How did the IC50 turn out when `O=c1c(-c2ccc(OCC(F)(F)F)cc2)c(C(F)(F)F)nc2cc(C(F)(F)F)ccn12` [Example 4-1, 3-(4-(2,2,2-Trifluoroethoxy)phenyl)-2,8-bis(trifluoromethyl)-4H-pyrido[1,2-a]pyrimidin-4-one] was run?
The IC50 was 5220 nM.

`O=c1c(-c2ccc(OCC(F)(F)F)cc2)c(C(F)(F)F)nc2cc(C3CC3)ccn12` [Example 4-2, 8-cyclopropyl-3-(4-(2,2,2-trifluoroethoxy)phenyl)-2-(trifluoromethyl)-4H-pyrido[1,2-a]pyrimidin-4-one] was tested. Which IC50 did it give?
Its IC50 is 111 nM.

With `O=c1c(-c2ccc(OCC(F)(F)F)cc2F)c(C(F)(F)F)nc2ccccn12` [Example 5-1, 3-(2-Fluoro-4-(2,2,2-trifluoroethoxy)phenyl)-2-(trifluoromethyl)-4H-pyrido[1,2-a]pyrimidin-4-one] as the compound, how does the IC50 read?
Its IC50 is 12.5 nM.

Which IC50 does the source give for `O=c1c(-c2ccc(OCC(F)(F)F)c(Cl)c2)c(C(F)(F)F)nc2ccccn12` [Example 5-2, 3-(3-chloro-4-(2,2,2-trifluoroethoxy)phenyl)-2-(trifluoromethyl)-4H-pyrido[1,2-a]pyrimidin-4-one] here?
The IC50 was 157 nM.

`O=c1c(-c2cnn(C3CC3)c2)c(C(F)(F)F)nc2ccccn12` [Example 5-3, 3-(1-cyclopropyl-1H-pyrazol-4-yl)-2-(trifluoromethyl)-4H-pyrido[1,2-a]pyrimidin-4-one] was tested. Which IC50 did it give?
Its IC50 is 5190 nM.

How did the IC50 turn out when `CCCn1cc(-c2c(C(F)(F)F)nc3ccccn3c2=O)cn1` [Example 5-4, 3-(1-propyl-1H-pyrazol-4-yl)-2-(trifluoromethyl)-4H-pyrido[1,2-a]pyrimidin-4-one] was run?
The IC50 was 198 nM.

For `COc1ccn2c(=O)c(-c3ccc(OCC(F)(F)F)nc3F)c(C(F)(F)F)nc2c1` [Example 7-1, 3-(2-Fluoro-6-(2,2,2-trifluoroethoxy)-3-pyridinyl)-8-methoxy-2-(trifluoromethyl)-4H-pyrido[1,2-a]pyrimidin-4-one], which IC50 is on record?
Its IC50 is 125 nM.

`O=c1c(-c2ccc(OCC(F)(F)F)cn2)c(C(F)(F)F)nc2ccccn12` [Example 7-2, 3-(5-(2,2,2-trifluoroethoxy)-2-pyridinyl)-2-(trifluoromethyl)-4H-pyrido[1,2-a]pyrimidin-4-one] was tested. Which IC50 did it give?
Its IC50 is 5230 nM.

For `COc1ccn2c(=O)c(-c3cnc(OCC(F)(F)F)c(F)c3)c(C(F)(F)F)nc2c1` [Example 7-3, 3-(5-fluoro-6-(2,2,2-trifluoroethoxy)-3-pyridinyl)-8-methoxy-2-(trifluoromethyl)-4H-pyrido[1,2-a]pyrimidin-4-one], which IC50 is on record?
The IC50 was 4050 nM.

How did the IC50 turn out when `COc1ccn2c(=O)c(-c3ccc(CCC(F)(F)F)cc3)c(C(F)(F)F)nc2c1` [Example 7-5, 8-methoxy-2-(trifluoromethyl)-3-(4-(3,3,3-trifluoropropyl)phenyl)-4H-pyrido[1,2-a]pyrimidin-4-one] was run?
Its IC50 is 11.9 nM.

Which IC50 does the source give for `CCCc1ccc(-c2c(C(F)(F)F)nc3cc(OC)ccn3c2=O)cn1` [Example 7-6, 8-methoxy-3-(6-propyl-3-pyridinyl)-2-(trifluoromethyl)-4H-pyrido[1,2-a]pyrimidin-4-one] here?
The IC50 was 302 nM.

With `COc1ccn2c(=O)c(-c3ccc(OCC(F)(F)F)cc3C(F)(F)F)c(C(F)(F)F)nc2c1` [Example 8-2, 8-methoxy-3-(4-(2,2,2-trifluoroethoxy)-2-(trifluoromethyl)phenyl)-2-(trifluoromethyl)-4H-pyrido[1,2-a]pyrimidin-4-one] as the compound, how does the IC50 read?
The IC50 was 605 nM.

With `COc1ccn2c(=O)c(-c3ccc(OCC(F)(F)F)cc3Cl)c(C(F)(F)F)nc2c1` [Example 8-3, 3-(2-chloro-4-(2,2,2-trifluoroethoxy)phenyl)-8-methoxy-2-(trifluoromethyl)-4H-pyrido[1,2-a]pyrimidin-4-one] as the compound, how does the IC50 read?
Its IC50 is 22.5 nM.

With `COc1ccn2c(=O)c(-c3ccc(OC(C)C#N)cc3)c(C(F)(F)F)nc2c1` (centres unmarked) [Example 8-4, 2-(4-(8-methoxy-4-oxo-2-(trifluoromethyl)-4H-pyrido[1,2-a]pyrimidin-3-yl)phenoxy)propanenitrile] as the compound, how does the IC50 read?
Its IC50 is 16.2 nM.

Which IC50 does the source give for `COc1ccn2c(=O)c(-c3ccc(O[C@H](C)C#N)cc3)c(C(F)(F)F)nc2n1` [Example 8-6, (2R)-2-(4-(8-methoxy-4-oxo-2-(trifluoromethyl)-4H-pyrimido[1,2-a]pyrimidin-3-yl)phenoxy)propanenitrile] here?
Its IC50 is 23.5 nM.

How did the IC50 turn out when `COc1ccn2c(=O)c(-c3ccc(O[C@@H](C)C#N)cc3)c(C(F)(F)F)nc2n1` [Example 8-7, (2S)-2-(4-(8-methoxy-4-oxo-2-(trifluoromethyl)-4H-pyrimido[1,2-a]pyrimidin-3-yl)phenoxy)propanenitrile] was run?
The IC50 was 4910 nM.

How did the IC50 turn out when `COc1ccn2c(=O)c(-c3ccc(O[C@H](C)C#N)cc3)c(C(F)(F)F)nc2c1` [Example 8-8, (2R)-2-(4-(8-methoxy-4-oxo-2-(trifluoromethyl)-4H-pyrido[1,2-a]pyrimidin-3-yl)phenoxy)propanenitrile] was run?
Its IC50 is 566 nM.

With `COc1ccn2c(=O)c(-c3ccc(OCC(F)(F)C(F)F)cc3)c(C(F)(F)F)nc2c1` [Example 9-1, 8-Methoxy-3-(4-(2,2,3,3-tetrafluoropropoxy)phenyl)-2-(trifluoromethyl)-4H-pyrido[1,2-a]pyrimidin-4-one] as the compound, how does the IC50 read?
Its IC50 is 11.1 nM.

How did the IC50 turn out when `O=c1ccn2c(=O)c(-c3ccc(OCC(F)(F)F)c(F)c3)c(C(F)(F)F)nc2[nH]1` [Example 10-2, 7-(3-fluoro-4-(2,2,2-trifluoroethoxy)phenyl)-8-(trifluoromethyl)-2H-pyrimido[1,2-a]pyrimidine-2,6(1H)-dione] was run?
The IC50 was 328 nM.

For `O=c1ccn2c(=O)c(-c3ccc(OCC(F)(F)F)cc3)c(C(F)(F)F)nc2[nH]1` [Example 10-3, 7-(4-(2,2,2-trifluoroethoxy)phenyl)-8-(trifluoromethyl)-2H-pyrimido[1,2-a]pyrimidine-2,6(1H)-dione], which IC50 is on record?
Its IC50 is 900 nM.

Which IC50 does the source give for `[2H]C([2H])([2H])n1c(=O)ccn2c(=O)c(-c3ccc(OCC(F)(F)F)cc3)c(C(F)(F)F)nc12` [Example 11-1, 1-(Methyl-d3)-7-(4-(2,2,2-trifluoroethoxy)phenyl)-8-(trifluoromethyl)-2H-pyrimido[1,2-a]pyrimidine-2,6(1H)-dione] here?
The IC50 was 48.2 nM.
